In brackets after ≈: the same amount, converted by molar mass.
Tests used:
[1] = Anticancer activity against human NMC-797 cells after 48 hrs by viability assay; format: functional, cell-based; conditions: NMC-797, 48 h
Bacillus subtilis = assay: Antimicrobial activity against Bacillus subtilis Marburg ATCC 6051 assessed as growth inhibition after 20 hrs by two-fold microdilution method; format: functional, organism-based; conditions: Marburg ATCC 6051, 20 h
[2] = Anticancer activity against human MJ cells after 48 hrs by viability assay; format: functional, cell-based
[3] = system: Mycolicibacterium smegmatis; assay: Antimicrobial activity against Mycobacterium smegmatis strain MC2 155 ATCC 700084 assessed as growth inhibition after 20 hrs by two-fold microdilution method; format: functional, organism-based; conditions: MC2 155 ATCC 700084, 20 h
Escherichia coli = assay: Antimicrobial activity against Escherichia coli K-12 ATCC 25404 assessed as growth inhibition after 20 hrs by two-fold microdilution method; format: functional, organism-based; conditions: K-12 ATCC 25404, 20 h

Structure (SMILES) | IC50 [1] | IC50 (Bacillus subtilis) | MIC95 (Bacillus subtilis) | IC50 [2] | IC50 [3] | MIC95 [3] | IC50 (Escherichia coli) | MIC95 (Escherichia coli)
O=C1C=C[C@]2(C[C@@H](c3ccccc3)O[C@@H](c3ccccc3)O2)O1 (racemic) | 900 nM | 224 µM | > 500 µM | 1700 nM | > 500 µM | > 500 µM | > 500 µM | > 500 µM
O=C1C=C[C@]2(C[C@@H](c3cccc(Cl)c3)O[C@@H](c3cccc(Cl)c3)O2)O1 (racemic) | 82 nM | 408 µM | > 500 µM | 260 nM | > 500 µM | > 500 µM | > 500 µM | > 500 µM
O=C1C=C[C@]2(C[C@@H](c3ccc([N+](=O)[O-])cc3)O[C@@H](c3ccc([N+](=O)[O-])cc3)O2)O1 (racemic) | 26 nM | – | – | 190 nM | – | – | – | –
O=C1C=C[C@]2(C[C@@H](c3cccc([N+](=O)[O-])c3)O[C@@H](c3ccccc3)O2)O1 (racemic) | 160 nM | – | – | 370 nM | – | – | – | –
O=C1C=C[C@]2(C[C@@H](c3c(F)c(F)c(F)c(F)c3F)O[C@@H](c3c(F)c(F)c(F)c(F)c3F)O2)O1 (racemic) | 570 nM | – | – | 2000 nM | – | – | – | –
CC1[C@@H](c2cccc([N+](=O)[O-])c2)O[C@@H](c2cccc([N+](=O)[O-])c2)O[C@@]12C=CC(=O)O2 (mixture of isomers) | 12000 nM | – | – | > 20000 nM | – | – | – | –
O=C1C=C[C@]2(C[C@@H](c3ccccc3)O[C@@H](c3cccc([N+](=O)[O-])c3)O2)O1 (racemic) | 120 nM | – | – | 340 nM | – | – | – | –
O=C1C=C[C@]2(C[C@@H](c3ccccc3[N+](=O)[O-])O[C@@H](c3ccccc3[N+](=O)[O-])O2)O1 (racemic) | 64 nM | – | – | 170 nM | – | – | – | –
O=C1C=C[C@]2(C[C@@H](c3coc([N+](=O)[O-])c3)O[C@@H](c3coc([N+](=O)[O-])c3)O2)O1 (racemic) | 340 nM | – | – | 820 nM | – | – | – | –
O=C1C=C[C@]2(CCOCO2)O1 (racemic) | 8600 nM | – | – | > 20000 nM | – | – | – | –
O=C1C=C[C@]2(C[C@@H](c3cccc([N+](=O)[O-])c3)O[C@@H](c3cccc([N+](=O)[O-])c3)O2)O1 (racemic) | 47 nM | 216 µM | 425 µM (≈ 169 µg/mL) | 170 nM | > 500 µM | > 500 µM | > 500 µM | > 500 µM
O=C1C=C[C@]2(C[C@@H](c3cccc(C(F)(F)F)c3)O[C@@H](c3cccc(C(F)(F)F)c3)O2)O1 (racemic) | 30 nM | – | – | 190 nM | – | – | – | –
O=C1CC[C@]2(C[C@@H](c3cccc(C(F)(F)F)c3)O[C@@H](c3cccc(C(F)(F)F)c3)O2)O1 (racemic) | > 20000 nM | – | – | > 20000 nM | – | – | – | –
O=C1C=C[C@]2(C[C@@H](c3ccc4ccccc4c3[N+](=O)[O-])O[C@@H](c3ccc4ccccc4c3[N+](=O)[O-])O2)O1 (racemic) | 7600 nM | – | – | > 20000 nM | – | – | – | –

From ChEMBL document CHEMBL3352751, “7,9-Diaryl-1,6,8-trioxaspiro[4.5]dec-3-en-2-ones: readily accessible and highly potent anticancer compounds” (Bioorg Med Chem Lett, 2014)
